Results as given in publication PMC12186844 (ACS Chemical Neuroscience, 2025).
Read-outs that look alike come from different tables or passages of the source.

What was measured:
D1Rs = conditions: earlier report, reference number not given; cited from earlier work
D2LR [1] = molecular target: T1, D2LR (Homo sapiens, UniProt P14416); test: inhibition of forskolin-stimulated cAMP production, BRET biosensor; format: cell-based;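 note: Flp-In-CHO cells stably expressing CAMYEL cAMP BRET sensor, agonist plus 10 µM forskolin, net BRET after forskolin-vehicle subtraction, parameters from complete operational model of allosterism and agonism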
Protocol: Flp-In-CHO cells stably coexpressing the CAMYEL biosensor and DRs were plated into white 96-well CulturPlates (Revvity) and grown overnight. The cells were equilibrated in Hank’s balanced salt solution (HBSS) at 37 °C (or 25 °C when indicated) before starting the experiment. The cells were costimulated with the agonists and 10 μM forskolin for the indicated time frames when the BRET readings were captured. Coelenterazine (Nanolight Technology, AZ) was added at a final concentration of 5 μM at least 3 min prior to measurement. […] Net BRET was determined by subtraction of the vehicle control coadded with 10 μM forskolin.
Dose–response curves were fitted using the following three-parameter equation: response=bottom+top−bottom/1+10^(logEC50−log[A]) 5 where top and bottom represent the maximal and minimal asymptote of the dose response curve, [A] is the molar concentration of the agonist, and EC50 is the molar concentration of the agonist required to give a response half-way between bottom and top.

D2LR [2] = molecular target: T1, D2LR; test: whole cell [3H]raclopride binding assay
Protocol: The binding reaction was conducted in HBSS for 1 h at 37 °C. The adherent cells were washed two times with cold 0.9% NaCl solution, and 100 μL/well scintilation liquid was added to the plate. The remaining radioactivity was detected in a MicroBeta counter.

[3] = orthosteric agonist efficacy, operational model
[4] = orthosteric ligand, radioligand binding assay

T1 sequence (P14416 whole entry): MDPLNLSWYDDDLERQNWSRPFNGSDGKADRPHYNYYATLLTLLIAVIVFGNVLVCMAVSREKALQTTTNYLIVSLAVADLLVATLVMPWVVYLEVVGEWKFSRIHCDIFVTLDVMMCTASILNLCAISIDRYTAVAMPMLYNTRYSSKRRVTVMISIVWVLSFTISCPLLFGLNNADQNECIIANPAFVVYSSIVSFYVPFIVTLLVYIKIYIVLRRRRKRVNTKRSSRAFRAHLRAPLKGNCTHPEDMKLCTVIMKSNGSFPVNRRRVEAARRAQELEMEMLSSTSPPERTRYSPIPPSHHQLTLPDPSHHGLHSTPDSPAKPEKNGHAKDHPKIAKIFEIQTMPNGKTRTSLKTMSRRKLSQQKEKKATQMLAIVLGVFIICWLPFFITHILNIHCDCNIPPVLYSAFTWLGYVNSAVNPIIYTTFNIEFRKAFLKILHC

SMILES	LogτA (D2LR [1]; [3])	τA (D2LR [1]; [3])	LogτA (D2LR [1])	τA (D2LR [1])	further results
CC1Cc2ccccc2N1C(=O)c1nc2ccccc2s1 (stereo not shown) [D2 PAM1, 1,3-benzothiazol-2-yl(2-methyl-2,3-dihydro-indol-1-yl)methanone]					activity at D1Rs (D1Rs): does not display activity
CCCN1CCC[C@@H](c2cccc(O)c2)C1 [S-(3)-PPP, reference compound]	0.33 ± 0.05	2.14			
CN1CCc2cccc3c2[C@H]1Cc1ccc(O)c(O)c1-3 [apomorphine, reference compound]			0.93 ± 0.02	8.5	
CC(C)C[C@H]1C(=O)N2CCC[C@H]2[C@]2(O)O[C@](NC(=O)[C@@H]3C=C4c5cccc6[nH]c(Br)c(c56)C[C@H]4N(C)C3)(C(C)C)C(=O)N12 [bromocriptine, reference compound]			0.66 ± 0.04	4.6	Kd (D2LR [2]): 1.32 nM
CCCN[C@H]1CCc2nc(N)sc2C1 [pramipexole, reference compound]			1.05 ± 0.04	11.2	
CCCN(CCc1cccs1)[C@H]1CCc2c(O)cccc2C1 [rotigotine, reference compound]			1.17 ± 0.05	14.8	Kd (D2LR [2]): 3.09 nM

Continued, in another order:

LogτA (D2LR [1]; [3])	τA (D2LR [1]; [3])	SMILES	LogτA (D2LR [1])	τA (D2LR [1])	further results
1.01 ± 0.03	10.2	CCCN1C[C@H](CSC)C[C@@H]2c3cccc4[nH]cc(c34)C[C@H]21 [pergolide, reference compound]			
1.14 ± 0.08	13.8	CCCN(CCC)CCc1cccc2c1CC(=O)N2 [ropirinole, reference compound]			KA (D2LR [2]; [4]): 1350 nM; pKA (D2LR [2]; [4]): 5.87 ± 0.18
